Results as given in ChEMBL document CHEMBL4715869, “N-(Pyrimidin-2-yl)-1,2,3,4-tetrahydroisoquinolin-6-amine Derivatives as Selective Janus Kinase 2 Inhibitors for the Treatment of Myeloproliferative Neoplasms” (J Med Chem, 2020).
pIC50: −log10 of the molar value. Calls of active or inactive are those of the source. The calls are words filed in the database; no cut-off is given here.

Tests used:
[1] = target: Tyrosine-protein kinase JAK2 (Homo sapiens, UniProt O60674); experiment: Inhibition of recombinant human JAK2 (808 to end residues) KTFCGTPEYLAPEVRREPRILSEEEQEMFRDFDYIADWC as substrate measured after 40 mins in presence of [gamm33P]ATP by scintillation counting method
Homo sapiens = species: Homo sapiens; experiment: Selectivity index, ratio of IC50 for inhibition of FLT3 ITD mutant in human MOLM13 cells to IC50 for inhibition of JAK2 V617F mutant in human SET-2 cells; format: cell-based
BaF3 [2] = experiment: Antitumor activity against mouse BAF3 cells harboring JAK2 V617F mutant implanted in Balb/c mouse assessed as decrease in liver weight at 60 mg/kg, po qd administered starting from day 4 to 20 and measured on day 25 relative to control; format: functional; set-up: scale not given: the % may be the effect or the level left; conditions: time 21 day
SET-2 [3] = experiment: Induction of apoptosis in human SET-2 cells assessed as live cells at 0.4 uM incubated for 24 hrs by Annexin V/PI staining based flow cytometric analysis (reference value: 96.23 %); format: functional
[4] = target: Receptor-type tyrosine-protein kinase FLT3 (Homo sapiens) (UniProt P36888); experiment: Inhibition of FLT3 in human SET2 cells assessed as decrease in FLT3 phosphorylation at 1 to 1000 nM after 2 hrs by Western blot analysis; format: cell-based; conditions: dose 1-1000 nM
[5] = Cmax in male Sprague-Dawley rat at 5 mg/kg, iv administered […] measured upto 24 hrs by LC/MS/MS analysis; format: ADME, organism-based; set-up: route intravenous, dose 5 mg/kg, time <=24; conditions: in vivo
SET-2 [6] = experiment: Induction of apoptosis in human SET-2 cells assessed as late apoptotic cells at 1.6 uM incubated for 24 hrs by Annexin V/PI staining based flow cytometric analysis (reference value: 1.52%); format: functional
[7] = target: T1, Signal transducer and activator of transcription 1 (Mus musculus) (UniProt P42225); experiment: Inhibition of STAT1 phosphorylation in mouse BAF3 cells at 1000 nM after 2 hrs by Western blot analysis; format: cell-based
T1 sequence (whole entry): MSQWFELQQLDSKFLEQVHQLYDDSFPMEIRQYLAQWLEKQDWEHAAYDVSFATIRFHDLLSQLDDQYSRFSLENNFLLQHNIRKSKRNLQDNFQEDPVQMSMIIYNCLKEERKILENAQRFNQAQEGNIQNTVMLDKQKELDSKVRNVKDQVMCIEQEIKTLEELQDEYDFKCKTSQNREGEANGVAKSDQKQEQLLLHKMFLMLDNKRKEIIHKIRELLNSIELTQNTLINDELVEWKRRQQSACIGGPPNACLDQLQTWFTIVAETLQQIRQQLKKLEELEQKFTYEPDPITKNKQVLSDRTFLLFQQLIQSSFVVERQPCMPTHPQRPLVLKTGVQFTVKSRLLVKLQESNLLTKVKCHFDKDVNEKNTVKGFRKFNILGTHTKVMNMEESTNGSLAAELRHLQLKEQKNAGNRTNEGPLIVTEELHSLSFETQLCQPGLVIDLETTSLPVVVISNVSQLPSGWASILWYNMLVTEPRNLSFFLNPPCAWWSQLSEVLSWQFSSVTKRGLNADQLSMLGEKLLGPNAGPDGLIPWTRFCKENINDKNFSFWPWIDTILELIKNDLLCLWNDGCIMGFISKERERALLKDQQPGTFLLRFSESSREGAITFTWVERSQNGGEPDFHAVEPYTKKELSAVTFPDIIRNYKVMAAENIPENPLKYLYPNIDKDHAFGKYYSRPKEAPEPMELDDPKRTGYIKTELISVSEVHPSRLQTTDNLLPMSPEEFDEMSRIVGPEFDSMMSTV

SET-2 [8] = experiment: Induction of apoptosis in human SET-2 cells assessed as early apoptotic cells at 0.8 uM incubated for 24 hrs by Annexin V/PI staining based flow cytometric analysis (reference value: 1.47 %); format: functional
SET-2 [9] = experiment: Induction of apoptosis in human SET-2 cells assessed as late apoptotic cells at 0.4 uM incubated for 24 hrs by Annexin V/PI staining based flow cytometric analysis (reference value: 1.52%); format: functional
BaF3 [10] = experiment: Antitumor activity against mouse BAF3 cells harboring JAK2 V617F mutant implanted in Balb/c mouse assessed as decrease in liver weight at 30 mg/kg, po qd administered starting from day 4 to 20 and measured on day 25 relative to control; format: functional; set-up: scale not given: the % may be the effect or the level left; conditions: time 21 day
[11] = Selectivity index, ratio of IC50 for inhibition of recombinant human FLT3 D835Y mutant (564 to end residues) to IC50 for inhibition of recombinant human JAK2 (808 to end residues)
SET-2 [12] = experiment: Induction of apoptosis in human SET-2 cells assessed as late apoptotic cells at 0.05 uM incubated for 24 hrs by Annexin V/PI staining based flow cytometric analysis (reference value: 1.52%); format: functional
[13] = Tmax in male Sprague-Dawley rat at 5 mg/kg, po administered via gavage measured upto 24 hrs by LC/MS/MS analysis; format: ADME, organism-based; conditions: in vivo
[14] = target: T2, Signal transducer and transcription activator 6 (Mus musculus) (UniProt P52633); experiment: Inhibition of STAT6 phosphorylation in mouse BAF3 cells at 1000 nM after 2 hrs by Western blot analysis; format: cell-based
T2 sequence (whole entry): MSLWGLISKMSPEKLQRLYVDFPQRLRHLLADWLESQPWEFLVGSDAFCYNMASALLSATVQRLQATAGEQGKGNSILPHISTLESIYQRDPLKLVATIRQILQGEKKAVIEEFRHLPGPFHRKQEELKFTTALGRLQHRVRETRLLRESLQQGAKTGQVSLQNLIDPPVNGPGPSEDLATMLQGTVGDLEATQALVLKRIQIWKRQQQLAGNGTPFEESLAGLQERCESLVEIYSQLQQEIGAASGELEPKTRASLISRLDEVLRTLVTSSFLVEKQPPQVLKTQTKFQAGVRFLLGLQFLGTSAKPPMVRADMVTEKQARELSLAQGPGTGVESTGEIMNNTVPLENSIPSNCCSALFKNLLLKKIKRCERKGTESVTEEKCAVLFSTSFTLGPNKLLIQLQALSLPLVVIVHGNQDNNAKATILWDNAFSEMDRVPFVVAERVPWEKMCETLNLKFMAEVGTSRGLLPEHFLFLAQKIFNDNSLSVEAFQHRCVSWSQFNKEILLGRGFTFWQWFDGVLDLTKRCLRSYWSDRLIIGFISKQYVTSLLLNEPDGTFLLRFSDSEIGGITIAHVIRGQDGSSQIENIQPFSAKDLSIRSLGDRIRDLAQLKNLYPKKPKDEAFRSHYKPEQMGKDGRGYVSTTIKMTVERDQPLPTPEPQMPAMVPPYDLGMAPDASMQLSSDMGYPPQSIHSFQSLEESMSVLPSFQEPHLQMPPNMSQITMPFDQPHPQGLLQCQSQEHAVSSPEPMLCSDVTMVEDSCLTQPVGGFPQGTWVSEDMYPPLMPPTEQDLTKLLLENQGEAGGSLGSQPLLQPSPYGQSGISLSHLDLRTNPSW

SET-2 [15] = experiment: Antitumor activity against human SET2 cells xenografted in NOD/SCID mouse assessed as tumor growth inhibition at 15 mg/kg, po qd administered for 16 days and measured every 2 days relative to control; format: functional; conditions: SET-2, po, 384 h, time 16 day, read-out: TGI

Tyrosine-protein kinase JAK2, sequence (O60674 whole entry): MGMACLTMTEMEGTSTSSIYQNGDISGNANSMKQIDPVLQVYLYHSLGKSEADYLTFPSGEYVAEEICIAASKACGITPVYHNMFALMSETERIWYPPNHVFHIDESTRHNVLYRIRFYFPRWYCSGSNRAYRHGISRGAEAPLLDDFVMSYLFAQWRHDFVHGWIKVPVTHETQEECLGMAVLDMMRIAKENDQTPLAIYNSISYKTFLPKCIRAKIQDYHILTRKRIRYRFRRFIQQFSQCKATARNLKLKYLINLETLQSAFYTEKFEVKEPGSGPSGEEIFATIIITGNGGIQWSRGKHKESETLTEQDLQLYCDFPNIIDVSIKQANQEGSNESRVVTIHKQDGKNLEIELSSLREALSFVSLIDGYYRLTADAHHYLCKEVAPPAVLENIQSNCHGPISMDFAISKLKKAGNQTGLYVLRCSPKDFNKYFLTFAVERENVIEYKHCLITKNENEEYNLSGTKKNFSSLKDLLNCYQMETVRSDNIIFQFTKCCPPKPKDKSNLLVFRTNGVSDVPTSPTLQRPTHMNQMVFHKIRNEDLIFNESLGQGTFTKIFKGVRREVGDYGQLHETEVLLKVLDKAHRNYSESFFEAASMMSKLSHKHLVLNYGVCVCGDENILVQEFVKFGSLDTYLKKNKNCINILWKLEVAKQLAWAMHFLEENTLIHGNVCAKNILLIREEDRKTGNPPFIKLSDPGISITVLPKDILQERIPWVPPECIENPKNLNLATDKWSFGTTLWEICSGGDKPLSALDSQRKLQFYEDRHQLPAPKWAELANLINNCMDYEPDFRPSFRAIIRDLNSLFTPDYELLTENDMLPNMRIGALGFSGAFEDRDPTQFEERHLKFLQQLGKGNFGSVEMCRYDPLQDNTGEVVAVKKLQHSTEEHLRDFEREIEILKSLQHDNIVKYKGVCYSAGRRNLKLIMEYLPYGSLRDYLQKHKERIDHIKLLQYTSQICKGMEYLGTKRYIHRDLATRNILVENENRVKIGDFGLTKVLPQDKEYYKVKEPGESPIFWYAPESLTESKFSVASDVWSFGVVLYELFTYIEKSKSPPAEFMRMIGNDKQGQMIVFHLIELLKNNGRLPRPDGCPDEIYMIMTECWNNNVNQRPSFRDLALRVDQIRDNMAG
Receptor-type tyrosine-protein kinase FLT3 (Homo sapiens), sequence (P36888 whole entry): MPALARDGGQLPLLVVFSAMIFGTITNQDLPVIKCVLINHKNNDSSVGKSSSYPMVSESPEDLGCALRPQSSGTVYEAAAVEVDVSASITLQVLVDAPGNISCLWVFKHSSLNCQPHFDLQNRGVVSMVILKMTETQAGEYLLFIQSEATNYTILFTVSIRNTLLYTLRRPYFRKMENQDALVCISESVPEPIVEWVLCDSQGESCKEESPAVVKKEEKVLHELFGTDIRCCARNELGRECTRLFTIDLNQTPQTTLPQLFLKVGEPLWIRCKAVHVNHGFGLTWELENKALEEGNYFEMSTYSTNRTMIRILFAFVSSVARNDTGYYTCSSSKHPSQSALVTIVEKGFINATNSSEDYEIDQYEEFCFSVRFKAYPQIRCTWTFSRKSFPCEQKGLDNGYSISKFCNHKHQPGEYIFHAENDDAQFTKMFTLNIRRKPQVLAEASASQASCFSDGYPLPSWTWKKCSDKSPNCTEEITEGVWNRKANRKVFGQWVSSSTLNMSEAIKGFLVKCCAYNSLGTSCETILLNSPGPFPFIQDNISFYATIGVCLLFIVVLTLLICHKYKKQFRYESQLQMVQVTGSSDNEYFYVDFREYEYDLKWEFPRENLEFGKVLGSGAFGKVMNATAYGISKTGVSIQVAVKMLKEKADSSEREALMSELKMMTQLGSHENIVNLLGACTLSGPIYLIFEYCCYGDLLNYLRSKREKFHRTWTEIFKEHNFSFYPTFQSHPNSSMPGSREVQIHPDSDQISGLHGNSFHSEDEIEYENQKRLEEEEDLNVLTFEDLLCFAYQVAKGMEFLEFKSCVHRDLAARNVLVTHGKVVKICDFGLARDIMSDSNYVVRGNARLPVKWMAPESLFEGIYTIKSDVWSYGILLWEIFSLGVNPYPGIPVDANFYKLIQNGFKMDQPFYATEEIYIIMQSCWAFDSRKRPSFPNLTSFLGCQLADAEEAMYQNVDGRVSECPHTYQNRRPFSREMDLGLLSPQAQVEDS

## Cc1cnc(Nc2ccc3c(c2)CCN(C(=O)/C=C/CN(C)C)C3)nc1-c1cnn(C(C)C)c1
[1]
  pIC50: 8.52
Homo sapiens
  Ratio IC50: 75.2
BaF3 [2]
  Activity: 66.3%
SET-2 [3]
  Activity: 84.92%
[4]
  inhibition: inactive
[5]
  Cmax: 479 ng/mL
SET-2 [6]
  Activity: 45.54%
[7]
  inhibition: inactive
SET-2 [8]
  Activity: 9.12%
SET-2 [9]
  Activity: 8.68%
BaF3 [10]
  Activity: 36.2%
[11]
  Ratio IC50: 20.7
SET-2 [12]
  Activity: 2.34%
[13]
  Tmax: 54 min
[14]
  inhibition: inactive
SET-2 [15]
  inhibition in vivo at 15 mg/kg: 51.4%
